Where no end group is shown, it is not given here. The star is where a group is joined. Pam3Cys = N-terminal lipid (lipidation), CCCCCCCCCCCCCCCC(=O)N[C@@H](CSCC(COC(=O)CCCCCCCCCCCCCCC)OC(=O)CCCCCCCCCCCCCCC)C(=O)*

The text below walks through data of patent US20120328605A1, “COMPOSITIONS AND USES” (priority 2010, published 2012).

The test system of assay [1] is Lineage-CD11b+ monocytes. As to the kind of experiment: Monocyte analysis and counting after adjuvant injection in mice. In kind it is in vivo, C57BL/6 mice. How it is done: (§1) 24-Hours after injection of the TLR adjuvants, peripheral blood was drawn from C57BL/6 mice via cardiac puncture with lithium-heparin as anticoagulant. Red blood cell lysis was performed twice on pooled blood with Ammonium Chloride-based Buffer (Sigma, Steinheim, Germany) and cells were counted with the EasyCount™ System (Immunicon). […] Cells were finally washed three times and fixed for 15 min. with a 2% paraformaldehyde solution in PBS. Fluorescence minus one (FMO) controls were always included in the assays for fluorescent compensation setting. Samples were acquired on a flow cytometer (BD FACSCanto II) and data analyzed with the FACSDiva software (BD Biosciences). Monocytes were identified by their Side/Forward scatter properties and gated as CD3-/CD45R/B220-/Ly-6G-/NK1.1-(Lineage-)/CD11b+ cells. CD11b+ monocyte frequency was reported as a percentage of the total cells excluding debris.
as §1, with “24 hours” for “24-Hours”, “each immunomodulator,” for “the TLR adjuvants,”, “min” for “min.”, “monocytes” for “monocyte”

In assay [2] the test system is APPSwe/PS1 mice. As to the kind of experiment: T-water maze. The settings on record: Example 21: twelve weekly injections; CRX527, CRX601 20 μg i.p., 3D MPL 50 μg i.p., AS01B 1/10th human dose i.m.; FIG. 24. In kind it is in vivo. The protocol:
Five groups of APPSwe/PS1 mice received one a week for a period of 12 weeks the following treatment: • Gr1: APPSwe/PS1+NaCl 0.9% n(=20), i.p. injections • Gr4: APPSwe/PS1+CRX527 (20 μg/mouse, 130 μl, n=10), i.p. injections • Gr5: […] (50 μg/mouse, 130 μl, n=10), i.p. injections • Gr8 APPSwe/PS1+AS15 ( 1/10th of human dose, 50 μl, n=10), i.m. injections • Gr9: APPSwe/PS1+AS01B ( 1/10th of human dose, 50 μl, n=10), i.m. injections
Mice were tested during the “light on” phase of the day. Behavioral experimenter was blinded to the genetic and treatment status of animals. To assess hippocampal-dependent spatial learning and memory, mice were trained in the T-water maze task. In this paradigm, we evaluate the mouse's ability to remember the spatial location of submerged platform. The T-maze apparatus (length of stem, 64 cm; length of arms, 30 cm; width, 12 cm; height of walls, 16 cm) was made of clear fiberglass and filled with water (23±1° C.) at a height of 12 cm. A platform (11×11 cm) was placed at the end of the target arm and was submerged 1 cm below the surface. The acquisition phase allows to evaluate animals for left-right spatial learning. During the first two trials, platforms were placed on each arms of the maze to test the spontaneous turning preference of the mouse. After these two trials, the least chosen arm was reinforced by the escape platform. The mice were placed in the stem of the T-maze and choose to swim either left or right until they found the submerged platform and escape to it, to a maximum of 60 s. After reaching the platform, the mice remained on it for 20 s and then were immediately placed back in the maze. […] Repeated trials were presented on the same day up to a maximum of 48 trials. A rest period of at least 10-15 min intervened between each block of 10 trials. A mouse was considered to have learned the task when it made no errors in a block of five consecutive trials. […] The number of trials to reach the criterion (five of five correct choices made on consecutive trials) was measured as well as the latency to find the escape platform.

For assay [3], the system named is BV2 microglia cells. The assay is described as follows: In vitro phagocytosis of Aβ1-42 in BV2 cells, Western blot. In kind it is cell-based, mouse. The settings on record: 5 μg/mL cytochalasin D; FIG. 16. The protocol:
For total Aβ detection, 10-30 μg of cell extracts were separated on a precast 10-20% SDS polyacrylamide Tris-Tricine gel (Bio-Rad, Canada). Separated proteins were then transferred onto polyvinylidene fluoride (PVDF) membranes (PerkinElmer, Canada). Membrane were incubated in DPBS (Gibco, USA) at 90° C. for 10 min. Membrane were then incubated for 1 hour in blocking solution, which consist in TBS-T (50 mM Tris-HCl pH 8,0; 150 mM NaCl; 0.05% Tween 20) supplemented with 1% BSA (Sigma, Canada) and 5% non-fat dry milk, and probed for 16 hours at 4° C. with a mouse anti-amyloid beta protein monoclonal antibody clone 6E10 (Covance, USA) diluted to 1:1000 in TBS-T supplemented with 5% BSA and 0.02% sodium azide. Membranes were washed once for 15 min and three times for 5 min in TBS-T at room temperature. […] Films were digitalized using a HP Scanjet 4370 (HP) and signal intensity was measured using ImageJ (version 1.44p, NIH).
Aβ specific antibodies stimulate the uptake of soluble Aβ1-42 toxic peptides in an actin polymerization-dependent mechanism. […] Cells were incubated for the indicated period of time, resuspended by trypsinization, collected, solubilised in lysis buffer and further analyzed by immunoblotting. […]
A general note: In western blotting, separated proteins are transferred to a membrane and probed.

The subject of assay [4] is human microglial cell line CHME. The assay is described as follows: Phagocytosis of beta-amyloid 1-42 peptide by CHME cells. Type of assay: cell-based. The settings on record: Pam3Cys lip peptide 5 ug per ml, FIG. 18. The protocol:
Phagocytosis of beta-amyloid 1-42 peptide by the human microglial cell line CHME was observed after the addition of TLR2 agonist containing adjuvants Protollin and Pam3CysLip peptide. […] The synthetic peptide sequence of the Pam3Cys Lip peptide is described herein: Pam3Cys-SQ EPAAPAAEAT PAAEAP. Protollin was used at concentration 1 ug per ml based on the LPS content from Shigella flexneri. Pam3Cys lip peptide was used at concentration of 5 ug per ml of the pure tri-palmitoylated peptide.
Additionally, cells were imaged using 42 HiLyte 488 Fluo (Anaspec, Inc.) at 2 ug per ml in DMEM complete media (Invitrogen). Lysotracker red staining was performed and slides were mounted and co-stained with DAPI to show the nucleus (blue). […] Lysotracker red reagent was purchased from Invitrogen and used as manufacturer recommendations.

In assay [5] the test system is TASTPM mice. The assay is described as follows: T-water maze test in TASTPM. The following applies: 12 weekly i.m. injections; FIG. 30. In kind it is in vivo. How it is done:
To determine whether a TLR2 agonist will improve the cognitive impairment in TASTPM mice, the Pam3CysLip adjuvant fused to the Aβ1-6 peptide was injected 12 times at weekly basis using the intramuscular route and the memory was assessed using the T-water maze test. […] TASTPM mice have received one a week for a period of 12 weeks the following treatment: PBS or mice have received once a week for a period of 12 weeks the following treatment: PBS or of Pam3CysLip Aβ1-6 peptide.

In assay [6] the test system is Aβ42. The assay is described as follows: Aβ42 specific immunogenicity in the amyloid deposition mouse model. The settings on record: 12 injections of 10 ug, intramuscular route; FIG. 29. In kind it is in vivo, TASTPM mice. The protocol:
Whole blood is collected from mice and centrifuged on a vacutainer blood collection tube containing gel for serum separation. Serum samples are stored at −80° C. Streptavidin-coated plates (Greiner Bio-One, Germany) are first coated with beta-amyloid (1-42)-Lys(Biotin)-NH2 peptide (Anaspec, Inc.) at 0.5 μg/mL, using 50 mM sodium carbonate buffer, overnight at 4° C. Plates are then washed using a 4 times using PBS/0.05% Tween 20. Super Block (ScyTek laboratories) is added to the plates and incubated at 37° C. for at least one hour. Serum samples and standard (anti Aβ42 antibody (6E10 antibody, Covance, Inc.) are serially diluted in the plates and incubated at 37° C. for 2 hours. After a wash step, diluted peroxidase AffiniPure goat anti-mouse IgG, Fcγ fragment specific (Jackson ImmunoResearch Laboratories Inc.) is added for 1 hour at 37° C. A last wash is performed before adding TMB substrate reagent (BD OptEIA™, BD Biosciences) for 30 min at RT. Immediately, plates are stopped using 2N sulfuric acid, and then read at 450 nm using SpectraMax microplate reader (Molecular Devices, Inc.).

Assay [7] relates to PDAPP mice. The following applies: immunization of young PDAPP mice; cited from earlier work.

For `CCCCCCCCCCC[C@H](CC(=O)N[C@H]1[C@H](OC[C@H](NC(=O)C[C@@H](CCCCCCCCCCC)OC(=O)CCCCCCCCC)C(=O)O)O[C@H](CO)[C@@H](OP(=O)(O)O)[C@@H]1OC(=O)C[C@@H](CCCCCCCCCCC)OC(=O)CCCCCCCCC)OC(=O)CCCCCCCCC` [CRX527], the “circulating monocytes numbers following injection” value in assay [1] (i.m. or i.p. routes, doses of b403, FIG. 9) is “Upregulation of circulating monocytes numbers”. The “behaviour as assessed by T water maze testing” value in assay [2] was “significant improvements in behaviour”.
For the molecule `C=C1[C@@H](C)[C@H]2[C@H](Cc3ccccc3)NC(=O)[C@]23[C@H](OC(C)=O)/C=C/[C@@](C)(O)C(=O)[C@@H](C)C/C=C/[C@H]3[C@@H]1O` [cytochalasin D], the “effect on 2E7-increased cellular uptake of Aβ1-42” value in assay [3] is “inhibited”.
In the case of “Pam3Cys-SQ EPAAPAAEAT PAAEAP (Pam3Cys-SQEPAAPAAEATPAAEAP) [Pam3CysLip peptide, TLR2 agonist, tri-palmitoylated peptide from Neisseria meningitidis strain 8047]”, the phagocytosis in assay [4] (pre-incubation 18 hrs) is on record as 86 % of cells. Moreover, the “phagocytosis of Aβ1-42 by CHME” value in assay [4] (Protollin 1 ug per ml (LPS content), 18 hrs, vs PBS) is reported as “higher amyloid phagocytic activity”.
Turning to “Pam3Cys-SQ EPAAPAAEAT PAAEAPDAEFRH (Pam3Cys-SQEPAAPAAEATPAAEAPDAEFRH) [Pam3CysLip Aβ1-6 peptide]”, the “right-left discrimination tests (T-water maze) vs PBS injected group” value in assay [5] is recorded as “trend of improvement”. Moreover, the “anti Aβ42 specific immunogenicity” value in assay [6] is “High and specific anti Aβ42 specific immunogenicity”.
For QS21 [reference compound], the “activated Ly6C+ monocytes” value in assay [1] (single i.m. injection, 24 hrs, FIG. 19B) is given as 75%. In assay [1] (single i.m. injection, after 24 hrs, QS21 5 μg, FIG. 19A), the “number of monocytes, % of total peripheral white blood cells” value is 9.1%.
Consider “synthetic human Aβ1-42: synthetic human Aβ1-42 used to immunize PDAPP mice”, for which, in assay [7], the AD-like neuropathologies result is “reduce the extent and progression”.
